Experimental data taken from patent US20240216317A1, “COMPOSITION FOR PREVENTING, AMELIORATING OR TREATING INFLAMMATORY BOWEL DISEASE COMPRISING COMPOUND ISOLATED FROM ISODON EXCISUS AS EFFECTIVE COMPONENT” (HEALINNOLS INC., priority 2022, published 2024).

How the values were obtained:
[1] = tested on: animal model of DSS-induced inflammatory bowel disease; experiment: Therapeutic effect in mouse model of DSS-induced inflammatory bowel disease (body weight, DAI, colon length); type: in vivo, mouse (C57BL/6); settings: 5-ASA 100 mg/kg oral; for DAI / Colon length: Day 8, mouse, 2.5% DSS, Compound 1 2 mg/kg intraperitoneal; for DAI: 7 days, DSS group 11.75 ± 0.15; for Colon length: DSS group 4.9, normal control 8.4; for rate of body weight loss compared to group administered with DSS: mouse, 2.5% DSS 7 days, Chemical formula 1 2 mg/kg intraperitoneal, once a day for 7 days, FIG. 6
Excerpt: As a mouse with induced inflammatory bowel disease, 6 week-old C57BL/6 was used, and the animal was induced to have the disease by administration of DSS (dextran sulfate sodium, MW 36000 to 50000, MP Biomedicals), Test groups were divided into the followings; normal control which has not been treated with any chemical (3 animals); group administered with DSS (6 animals); group administered with DSS+5-ASA (5-aminosalicylic acid, Sigma) (6 animals); and group administered with DSS+compound represented by Chemical formula 1 of the present invention (6 animals).
Inflammatory bowel disease is generally evaluated in terms of the disease activity index (DAI) based on clinical signs like body weight loss, diarrhea, and bloody feces. DAI is measured by giving a score to each of body weight loss rate, state of feces, and state of bloody feces (Table 1).
In this example, evaluation was made for 7 days for each test group. For all test groups except normal control, 100 ml of drinking water with 2.5% DSS were supplied for 7 days, while the water exchange was made every 2 days, to induce inflammatory bowel disease. The group administered with 5-ASA was orally administered, once a day for 7 days, with 100 mg/kg 5-ASA dispersed in 2.5% CMC (carboxymethylcellulose sodium, Sigma). The compound represented by Chemical formula 1 of the present invention (2 mg/kg) was administered via intraperitoneal injection, once a day for 7 days. From the first day of test, mouse of each test group was weighed to measure the rate of body weight loss. […] However, the weight loss was observed from Day 5 and thereafter in every test group induced to have inflammatory bowel disease by a treatment with DSS.
Evaluation of disease activity index (DAI) was also carried out, once a day from the first day of the test. From all test groups having inflammatory bowel disease induced by DSS treatment except normal control which has not been treated with any chemical, higher DAI was shown from Day 5 and thereafter.
Sum of each item analyzed on Day 8 based on the evaluation index of Table 1 was described as disease activation index (DAI) in Table 2.
With regard to the inflammatory response to inflammatory bowel disease, level of the response can be evaluated in terms of the decrease in colon length. Mouse in each test group was sacrificed on Day 8 and the colon was removed from the animal. Colon length was measured from the removed colon.

[2] = tested on: claudin1; experiment: Immunofluorescence microscopy of tight junction-related protein claudin1 in intestinal epithelial wall model (DSS-treated Caco-2); type: cell-based, human; settings: 3% DSS, 24 hours; Chemical formula 1 0.3, 1 or 3 μM; 5-ASA 500 μM; FIG. 4
Description: Caco-2 cell line (human intestinal epithelial cell line) and RAW 264.7 cell line, which is macrophage cells derived from mouse, were cultured at 37° C., 5% CO2 conditions by using DMEM (Dulbecco's Modified Eagle Medium, #11995065, Gibco) containing 10% FBS (fetal bovine serum, #16000044, Gibco) and 1% streptomycin/penicillin (#15140122, Gibco). For culturing the cells, the medium exchange was carried out every 2 to 3 days, and, once the cells are grown to the level of 80% in cell culture dish (#353003, Falcon), they were maintained by subculture.
The Caco-2 cells were adjusted to have density of 2×10^5 cells/ml. Suspension of the cells (0.5 ml) was aliquoted in apical side membrane phase of a transwell insert 12-well plate. To the basolateral side phase, 1.5 ml of culture medium were added. While replacing the medium with fresh one, once per 2 or 3 days, culture was continued for 21 days approximately, i.e., till to have cell division and suitable TEER (transepithelial electrical resistance) value of monolayer. […]
Thereafter, the cells were washed 3 times with 1×PBS for 5 minutes and treated for 5 minutes with Hoechst 33342 for staining the nucleus. […] After the mounting with ProLong™ Gold Antifade reagent, it was examined by confocal fluorescence microscopy.

Row | Compound | DAI [1] | Colon length [1] [cm] | rate of body weight loss compared to group administered with DSS [1] | expression amount of claudin1 compared to DSS model group [2]
1 | COC(=O)C[C@H](OC(=O)/C=C/c1ccc(O)c(O)c1)c1ccc(O)c(O)c1 [Compound 1, 3-[3,4-dihydroxyphenyl]acrylic acid 1-[3,4-dihydroxyphenyl]-2-methoxycarbonylethyl ester] | 8.75 ± 0.21 | 7.4 | lower rate of body weight loss | statistically significantly higher
2 | Nc1ccc(O)c(C(=O)O)c1 [Compound 5-ASA, 5-aminosalicylic acid, reference compound] | 10.67 ± 0.19 | 5.7 | lower rate of body weight loss | statistically significantly higher
